Measurements as given in patent publication US12162867B2, “Inhibitors of RNA helicase DHX9 and uses thereof” (ACCENT THERAPEUTICS, INC., priority 2022, dated 2024).
pEC50: −log10 of the molar value.

System: circBRIP1 in HCT116 cells
Assay: DHX9 circBRIP1 cellular target engagement SYBR Green assay (qPCR)
Type: cell-based
Conditions: Homo sapiens, HCT-116, circBRIP1, HCT116 cells; SyBr assay (marked ^+); read-out: DHX9 Cellular Target Engagement EC50

Row | pEC50 | SMILES
1 | 5.31 | CS(=O)(=O)Nc1cc(Cl)cc(NC(=O)c2cnn(-c3ncccc3OCc3cnco3)c2)c1 [Example 66]
2 | 6.54 | CN(c1ncccn1)c1cccnc1-c1csc(C(=O)Nc2cc(Cl)cc(NS(C)(=O)=O)c2)c1 [Example 238]
3 | < 5.00 | CS(=O)(=O)Nc1cc(Cl)cc(NC(=O)c2cnn(C3CCNCC3)c2)c1 [Example 145, N-(3-chloro-5-(methylsulfonamido)phenyl)-1-(piperidin-4-yl)-1H-pyrazole-4-carboxamide]
4 | 6.00 | CS(=O)(=O)Nc1cc(Cl)cc(NC(=O)c2cnn(-c3ncccc3OCc3cccc(O)c3)c2)c1 [Example 179]
5 | 4.79 | CS(=O)(=O)Nc1cc(Cl)cc(NC(=O)c2cn(-c3ccccc3)cn2)c1 [Example 1, N-(3-chloro-5-(methylsulfonamido)phenyl)-1-phenyl-1H-imidazole-4-carboxamide]
6 | < 5.00 | CC1(C)CC(n2cc(C(=O)Nc3cc(Cl)cc(NS(C)(=O)=O)c3)cn2)CCN1 (stereo not shown) [Example 315]
7 | 5.95 | CCn1cc(C(=O)Nc2cc(Cl)cc(NS(C)(=O)=O)c2)cc1-c1ccccc1 [Example 79, N-(3-chloro-5-(methylsulfonamido)phenyl)-1-ethyl-5-phenyl-1H-pyrrole-3-carboxamide]
8 | 5.40 | CN1CC2(CC(n3cc(C(=O)Nc4cc(Cl)cc(NS(C)(=O)=O)c4)cn3)C2)C1 [Example 311]
9 | < 5.00 | CS(=O)(=O)Nc1cc(Cl)cc(NC(=O)c2cc3cc(C(F)(F)F)ccc3s2)c1 [Example 326]
10 | 5.52 | CS(=O)(=O)Nc1cc(Br)cc(NC(=O)c2cnn(-c3cccc(C#N)c3)c2)c1 [Example 52]
11 | 5.31 | CS(=O)(=O)Nc1cc(Cl)cc(NC(=O)c2cnn(C3CCN(CC(F)(F)F)CC3)c2)c1 [Example 316]
12 | 5.84 | CS(=O)(=O)Nc1cc(Cl)cc(NC(=O)c2cnn(-c3ncccc3OCc3cncnc3)c2)c1 [Example 188]
13 | 5.43 | CS(=O)(=O)Nc1cc(Cl)cc(NC(=O)c2cnn(C3CCCC3)c2)c1 [Example 309]
14 | 5.85 | CS(=O)(=O)Nc1cc(Br)cc(NC(=O)c2cnn(C3CCCCC3)c2)c1 [Example 48]
15 | 5.27 | CS(=O)(=O)Nc1cc(Br)cc(NC(=O)c2cnn(-c3ccccc3C(O)C(F)(F)F)c2)c1 (stereo not shown) [Example 103, N-(3-bromo-5-(methylsulfonamido)phenyl)-1-(2-(2,2,2-trifluoro-1-hydroxyethyl)phenyl)-1H-pyrazole-4-carboxamide]
16 | < 5.00 | CS(=O)(=O)Nc1cc(Cl)cc(NC(=O)c2cc3cc(Cl)ccc3s2)c1 [Example 298]
17 | 6.72 | CS(=O)(=O)Nc1cc(Cl)cc(NC(=O)c2cc(-c3ccc(N4CCOCC4)cn3)n(CC(F)(F)F)c2)c1 [Example 275]
18 | 6.25 | Cc1cccnc1-n1cc(C(=O)Nc2cc(Br)cc(NS(C)(=O)=O)c2)cc1C [Example 45]

Row | pEC50 | SMILES
19 | 5.44 | CS(=O)(=O)Nc1cc(Cl)cc(NC(=O)c2cnn(-c3ccc(N4CCn5ccnc5C4)cn3)c2)c1 [Example 192]
20 | 6.38 | CS(=O)(=O)Nc1cc(Cl)cc(NC(=O)c2cc(-c3ccccc3O)cs2)c1 [Example 106]
21 | 5.65 | Cc1cc(C(=O)Nc2cc(Cl)cc(NS(=O)(=O)C3CC3)c2)cn1-c1ccc(N2CCOCC2)cn1 [Example 247]
22 | 6.93 | CCS(=O)(=O)Nc1cc(Cl)cc(NC(=O)c2cc(-c3ncccn3)n(C)c2)c1 [Example 173, N-(3-chloro-5-(ethylsulfonamido)phenyl)-1-methyl-5-(pyrimidin-2-yl)-1H-pyrrole-3-carboxamide]
23 | 5.88 | CN(C)S(=O)(=O)c1ccc(-n2cc(C(=O)Nc3cc(Cl)cc(NS(C)(=O)=O)c3)cn2)nc1 [Example 200]
24 | < 5.00 | Cn1nc(C(=O)Nc2cc(Cl)cc(NS(C)(=O)=O)c2)cc1-c1ccccn1 [Example 140]
25 | 5.31 | CS(=O)(=O)Nc1cc(Cl)cc(NC(=O)c2cc3cnccn3c2)c1 [Example 330]
26 | 5.46 | CS(=O)(=O)Nc1cc(Cl)cc(NC(=O)c2cc3ccccn3c2)c1 [Example 209]
27 | 7.43 | Cc1cc(C(=O)Nc2cc(Cl)cc(NS(C)(=O)=O)c2)cn1-c1ccc(N(C)C2CCOC2)cn1 (stereo not shown) [Example 269]
28 | 6.58 | CSc1cccnc1-n1cc(C(=O)Nc2cc(Cl)cc(NS(C)(=O)=O)c2)cn1 [Example 219]
29 | 5.56 | Cc1cc(C(=O)Nc2cc(Br)cc(NS(C)(=O)=O)c2)cn1C1CCCCC1 [Example 85, N-(3-bromo-5-(methylsulfonamido)phenyl)-1-cyclohexyl-5-methyl-1H-pyrrole-3-carboxamide]
30 | 5.13 | CS(=O)(=O)Nc1cc(Br)cc(NC(=O)c2cnn(-c3cccc(C(F)F)n3)c2)c1 [Example 56]
31 | < 4.52 | Cc1cc(C(=O)Nc2cc(F)cc(NS(C)(=O)=O)c2)c[nH]1 [Example 5]
32 | 6.12 | CC(C)(O)COc1cccnc1-n1cc(C(=O)Nc2cc(Cl)cc(NS(C)(=O)=O)c2)cn1 [Example 195]
33 | 5.74 | CC(C)C(=O)N1CCN(c2ccc(-n3cc(C(=O)Nc4cc(Cl)cc(NS(C)(=O)=O)c4)cn3)nc2)CC1 [Example 149, N-(3-chloro-5-(methylsulfonamido)phenyl)-1-(5-(4-isobutyrylpiperazin-1-yl)pyridin-2-yl)-1H-pyrazole-4-carboxamide]
34 | < 5.00 | CN1CCN(c2cnc(-n3cc(C(=O)Nc4cc(Cl)cc(NS(C)(=O)=O)c4)cn3)cn2)CC1=O [Example 184]
35 | 5.36 | CC(=O)N1CCN(c2ccnc(-n3cc(C(=O)Nc4cc(Cl)cc(NS(C)(=O)=O)c4)cn3)c2)CC1 [Example 148, 1-[4-(4-acetylpiperazin-1-yl)pyridin-2-yl]-N-(3-chloro-5-methanesulfonamidophenyl)-1H-pyrazole-4-carboxamide]
36 | 6.25 | CS(=O)(=O)Nc1cc(Cl)cc(NC(=O)c2cc(-c3ncccc3CC(=O)N3CCCC3)cs2)c1 [Example 383]

Row | SMILES | pEC50
37 | CC(=O)N1CCN(c2ccc(-n3cc(C(=O)Nc4cc(Br)cc(NS(C)(=O)=O)c4)cn3)nc2)CC1 [Example 86, 1-(5-(4-acetylpiperazin-1-yl)pyridin-2-yl)-N-(3-bromo-5-(methylsulfonamido)phenyl)-1H-pyrazole-4-carboxamide] | 6.23

Same assay, conditions: Homo sapiens, HCT-116, circBRIP1, HCT116 cells; ^+ SyBr assay was used; read-out: DHX9 Cellular Target Engagement EC50

Row | pEC50 | SMILES
38 | 5.98 | CS(=O)(=O)Nc1cc(Cl)cc(NC(=O)c2cc(C3CC3)n(-c3ncc(F)cn3)c2)c1 [Example 451]
39 | 6.71 | Cc1cc(C(=O)Nc2cc(Cl)cc(NS(C)(=O)=O)c2)cn1-c1ccc(C#N)cn1 [Example 425]
40 | 5.80 | CS(=O)(=O)Nc1cc(Cl)cc(NC(=O)c2cnn(-c3c(F)cccc3OCc3cnco3)c2)c1 [Example 721]
41 | 6.17 | Cc1sc(C(=O)Nc2cc(Cl)cc(NS(C)(=O)=O)c2)cc1-c1ncc(F)cc1-c1cnco1 [Example 705]
42 | < 5.00 | CN1CCN(c2csc(C(=O)Nc3cc(Cl)cc(NS(C)(=O)=O)c3)c2)CC1=O [Example 661]
43 | 6.35 | CN1CCN(c2csc(C(=O)Nc3cc(Cl)cc(NS(C)(=O)=O)c3)c2)C1=O [Example 431]
44 | 6.67 | Cn1cc(C(=O)Nc2cc(Cl)cc(NS(C)(=O)=O)c2)cc1-c1ccc(F)cn1 [Example 575]
45 | 5.85 | CS(=O)(=O)Nc1cc(Cl)cc(NC(=O)c2cc(N3CCOC3=O)cs2)c1 [Example 433]

Same assay, conditions: Homo sapiens, HCT-116, read-out: DHX9 Cellular Target Engagement EC50

Row | SMILES | pEC50
46 | CS(=O)(=O)Nc1cc(Cl)cc(NC(=O)c2cnn(-c3ncccc3COc3ccccc3)c2)c1 [Example 167, N-(3-chloro-5-(methylsulfonamido)phenyl)-1-(3-(phenoxymethyl)pyridin-2-yl)-1H-pyrazole-4-carboxamide] | 5.76
